From patent publication US20260130395A1, “Water Dispersible Botanical Compositions” (Aquila Black Limited, priority 2021, published 2026)

Experiment: Stability of cannabinoid compounds and Vitamin E components in Beverage 1 (AB White) by LCMSMS
Format: physicochemical
Conditions: for Stability of Plant-Derived Cannabinoid Compounds in AB White, 8° C.: AB White stored at 8° C.; for Stability of Plant-Derived Cannabinoid Compounds in AB White, 21-25° C.: AB White stored at 21-25° C.

SMILES: CCCc1cc(O)c2c(c1)OC(C)(C)[C@@H]1CCC(C)=C[C@@H]21 [THCV, delta-9-tetrahydrocannabivarin]
- Stability of Plant-Derived Cannabinoid Compounds in AB White, 8° C. (0 days): 3.6 µg/mL
- Stability of Plant-Derived Cannabinoid Compounds in AB White, 8° C. (1 days): 3.54 µg/mL
- Stability of Plant-Derived Cannabinoid Compounds in AB White, 8° C. (2 days): 3.60 µg/mL
- Stability of Plant-Derived Cannabinoid Compounds in AB White, 8° C. (3 days): 3.55 µg/mL
- Stability of Plant-Derived Cannabinoid Compounds in AB White, 8° C. (5 days): 3.58 µg/mL
- Stability of Plant-Derived Cannabinoid Compounds in AB White, 8° C. (8 days): 3.60 µg/mL
- Stability of Plant-Derived Cannabinoid Compounds in AB White, 8° C. (9 days): 3.61 µg/mL
- Stability of Plant-Derived Cannabinoid Compounds in AB White, 8° C. (10 days): 3.58 µg/mL
- Stability of Plant-Derived Cannabinoid Compounds in AB White, 8° C. (11 days): 3.59 µg/mL
- Stability of Plant-Derived Cannabinoid Compounds in AB White, 8° C. (12 days): 3.50 µg/mL
- Stability of Plant-Derived Cannabinoid Compounds in AB White, 8° C. (15 days): 3.56 µg/mL
- Stability of Plant-Derived Cannabinoid Compounds in AB White, 8° C. (16 days): 3.57 µg/mL
- Stability of Plant-Derived Cannabinoid Compounds in AB White, 8° C. (17 days): 3.61 µg/mL
- Stability of Plant-Derived Cannabinoid Compounds in AB White, 8° C. (18 days): 3.59 µg/mL
- Stability of Plant-Derived Cannabinoid Compounds in AB White, 8° C. (19 days): 3.51 µg/mL
- Stability of Plant-Derived Cannabinoid Compounds in AB White, 8° C. (22 days): 3.60 µg/mL
- Stability of Plant-Derived Cannabinoid Compounds in AB White, 8° C. (23 days): 3.55 µg/mL
- Stability of Plant-Derived Cannabinoid Compounds in AB White, 8° C. (24 days): 3.56 µg/mL
- Stability of Plant-Derived Cannabinoid Compounds in AB White, 8° C. (25 days): 3.56 µg/mL
- Stability of Plant-Derived Cannabinoid Compounds in AB White, 8° C. (26 days): 3.63 µg/mL
- Stability of Plant-Derived Cannabinoid Compounds in AB White, 8° C. (29 days): 3.52 µg/mL
- Stability of Plant-Derived Cannabinoid Compounds in AB White, 8° C. (30 days): 3.59 µg/mL
- Stability of Plant-Derived Cannabinoid Compounds in AB White, 8° C. (60 days): 3.58 µg/mL
- Stability of Plant-Derived Cannabinoid Compounds in AB White, 8° C. (90 days): 3.56 µg/mL
- Stability of Plant-Derived Cannabinoid Compounds in AB White, 8° C. (120 days): 3.56 µg/mL
- Stability of Plant-Derived Cannabinoid Compounds in AB White, 8° C. (150 days): 3.55 µg/mL
- Stability of Plant-Derived Cannabinoid Compounds in AB White, 8° C. (180 days): 3.59 µg/mL
- Stability of Plant-Derived Cannabinoid Compounds in AB White, 8° C. (210 days): 3.44 µg/mL
- Stability of Plant-Derived Cannabinoid Compounds in AB White, 8° C. (240 days): 3.56 µg/mL
- Stability of Plant-Derived Cannabinoid Compounds in AB White, 8° C. (270 days): 3.47 µg/mL
- Stability of Plant-Derived Cannabinoid Compounds in AB White, 8° C. (300 days): 3.46 µg/mL
- Stability of Plant-Derived Cannabinoid Compounds in AB White, 8° C. (330 days): 3.52 µg/mL
- Stability of Plant-Derived Cannabinoid Compounds in AB White, 8° C. (360 days): 3.50 µg/mL
- Stability of Plant-Derived Cannabinoid Compounds in AB White, 8° C. (390 days): 3.47 µg/mL
- Stability of Plant-Derived Cannabinoid Compounds in AB White, 8° C. (420 days): 3.49 µg/mL
- Stability of Plant-Derived Cannabinoid Compounds in AB White, 8° C. (450 days): 3.44 µg/mL
- Stability of Plant-Derived Cannabinoid Compounds in AB White, 8° C. (480 days): 3.44 µg/mL
- Stability of Plant-Derived Cannabinoid Compounds in AB White, 8° C. (510 days): 3.34 µg/mL
- Stability of Plant-Derived Cannabinoid Compounds in AB White, 8° C. (540 days): 3.32 µg/mL
- Stability of Plant-Derived Cannabinoid Compounds in AB White, 8° C. (570 days): 3.30 µg/mL
- Stability of Plant-Derived Cannabinoid Compounds in AB White, 21-25° C. (0 days): 3.6 µg/mL
- Stability of Plant-Derived Cannabinoid Compounds in AB White, 21-25° C. (1 days): 3.48 µg/mL
- Stability of Plant-Derived Cannabinoid Compounds in AB White, 21-25° C. (2 days): 3.58 µg/mL
- Stability of Plant-Derived Cannabinoid Compounds in AB White, 21-25° C. (3 days): 3.54 µg/mL
- Stability of Plant-Derived Cannabinoid Compounds in AB White, 21-25° C. (5 days): 3.55 µg/mL
- Stability of Plant-Derived Cannabinoid Compounds in AB White, 21-25° C. (8 days): 3.63 µg/mL
- Stability of Plant-Derived Cannabinoid Compounds in AB White, 21-25° C. (9 days): 3.55 µg/mL
- Stability of Plant-Derived Cannabinoid Compounds in AB White, 21-25° C. (10 days): 3.55 µg/mL
- Stability of Plant-Derived Cannabinoid Compounds in AB White, 21-25° C. (11 days): 3.59 µg/mL
- Stability of Plant-Derived Cannabinoid Compounds in AB White, 21-25° C. (12 days): 3.47 µg/mL
- Stability of Plant-Derived Cannabinoid Compounds in AB White, 21-25° C. (15 days): 3.48 µg/mL
- Stability of Plant-Derived Cannabinoid Compounds in AB White, 21-25° C. (16 days): 3.60 µg/mL
- Stability of Plant-Derived Cannabinoid Compounds in AB White, 21-25° C. (17 days): 3.51 µg/mL
- Stability of Plant-Derived Cannabinoid Compounds in AB White, 21-25° C. (18 days): 3.50 µg/mL
- Stability of Plant-Derived Cannabinoid Compounds in AB White, 21-25° C. (19 days): 3.59 µg/mL
- Stability of Plant-Derived Cannabinoid Compounds in AB White, 21-25° C. (22 days): 3.52 µg/mL
- Stability of Plant-Derived Cannabinoid Compounds in AB White, 21-25° C. (23 days): 3.57 µg/mL
- Stability of Plant-Derived Cannabinoid Compounds in AB White, 21-25° C. (24 days): 3.63 µg/mL
- Stability of Plant-Derived Cannabinoid Compounds in AB White, 21-25° C. (25 days): 3.54 µg/mL
- Stability of Plant-Derived Cannabinoid Compounds in AB White, 21-25° C. (26 days): 3.55 µg/mL
